Series [1] in a line: MRI imaging experiments in rats. In kind it is in vivo, Sprague Dawley rat. The following applies: rat, intramuscular, 0.05-0.1 mmol Gd/kg. The protocol: Injectable solutions were first prepared (0.5M) by dissolving the appropriate amount of each complex in 2 mL of deionized water. The pH of the solutions were then adjusted to 7.4 using 1M HCl or NaOH as needed. The total Gd content of each solution was then determined by ICP analysis.
An anesthetized Sprague Dawley rat was injected intramuscularly with one of the metal solutions described above at a dose of 0.05-0.1 mmol Gd/kg body weight. Images were then taken at various time intervals and compared with a non-injected control at time 0.

The conditions of series [2]: in vivo; cited from earlier work.
The conditions of series [3]: compared with Magnevist; cited from earlier work.
A short description of series [4]: biodistribution, percent of injected dose in tissues of rats. In kind it is in vivo, Sprague Dawley rats. The note with it: rat, tail vein; for % injected dose, Blood: blood assumed 7% of body weight; for % injected dose, Muscle: muscle assumed 43% of body weight; for % injected dose, Bone: percent dose in femur × 25. The protocol: Sprague Dawley rats were allowed to acclimate for five days then injected with 100 μL of the complex solution via a tail vein. The rats weighed between 150 and 200 g at the time of injection. […] The amount of radioactivity in each tissue was determined by counting in a NaI scintillation counter coupled to a multichannel analyzer. The counts were compared to the counts in 100 μL standards in order to determine the percentage of the dose in each tissue or organ.
The percent dose in blood was estimated assuming blood to be 7% of the body weight. The percent dose in bone was estimated by multiplying the percent dose in the femur by 25. The percent dose in muscle was estimated assuming muscle to be 43% of the body weight. […]

Series [5] is described as follows: percent metal as a complex (Sephadex column, ^153 Sm tracer). In kind it is physicochemical. The following applies: 1:1 ligand/metal, SmCl3 3×10^-4 M in 0.01N HCl. The procedure:
A stock ^159 GdCl3 (or ^153 SmCl3) solution was prepared by adding 2 μL of 3×10^-4 M ^159 GdCl3 in 0.1N HCl to 2 mL of a 3×10^-4 M GdCl3 carrier solution. Appropriate ligand solutions were then prepared in deionized water. The 1:1 ligand/metal complexes were then prepared by combining the ligands (dissolved in 100-500 μL of deionized water) with 2 mL of the stock ^159 GdCl3 solution, followed by through mixing to give an acidic solution (pH=2). The pH of the solution was then raised to 7.0 using 0.1N NaOH. The percent metal as a complex was then determined by passing a sample of the complex solution through a Sephadex™ G-50 column, eluting with 4:1 saline ([…]) and collecting 2×3 mL fractions. The amount of radioactivity in the combined elutions was then compared with that left on the resin (non-complexed metal is retained on the resin). […]
A solution of the ligand of Example 1 was prepared by dissolving 3.8 mg of ligand/0.517 mL of deionized water (pH=2). […] After thorough mixing, the percent metal as a complex was determined by passing a sample of the complex solution through a Sephadex™ column, eluting with 4:1 saline (0.85% NaCl/NH4 OH), and collecting 2×3 mL fractions. The amount of radioactivity in the combined elutions was then compared with that left on the resin. […] By this method complexation was determined to be 98%. […]

In the case of `O=P(O)(O)CN1CCN(CP(=O)(O)O)Cc2cccc(n2)CN(CP(=O)(O)O)CC1.[Gd]` [Gd-PCTMP], in series [1], the “MR image enhancement, kidney” value is listed as “kidney enhancement”; the “bone localization in MR image” value was “bone localization in the shoulder, spine and sternum”.
On to `CNC[C@H](O)[C@@H](O)[C@H](O)[C@H](O)CO.CNC[C@H](O)[C@@H](O)[C@H](O)[C@H](O)CO.O=C([O-])CN(CCN(CC(=O)[O-])CC(=O)O)CCN(CC(=O)[O-])CC(=O)O.[Gd+3]` [MAGNEVIST, complex of gadolinium with diethylenetriaminepentaacetic acid], for which, in series [2], the distribution entry is recorded as “freely distributes in extracellular fluid” and the elimination entry is reported as “efficient elimination through the renal system”.
As to `CC(O)CN1CCN(CC(=O)[O-])CCN(CC(=O)[O-])CCN(CC(=O)[O-])CC1.[Gd+3]` (centres unmarked) [PROHANCE, [1,4,7-tris(carboxymethyl)-10-(2-hydroxypropyl)-1,4,7,10-tetraazacyclododecanato]-gadolinium], the side effects result in series [3] is reported as “fewer side effects than Magnevist”. In addition, in series [2], the distribution result is “freely distributes in extracellular fluid” and the elimination entry was “efficient elimination through the renal system”.
`O=C(O)CN1CCN(CP(=O)(O)O)CCN(CC(=O)O)Cc2cccc(n2)C1.[153Sm]` [^153 Sm-PC2A1P]: in series [4] (2 hours post injection), the “% injected dose, Brain” value was determined as 0.01%; the “% injected dose, Heart” value is given as 0.04%; the “% injected dose, Kidney” value is reported as 0.93%; the “% injected dose, Large Intestine” value came out at 0.12%. In addition, in series [4] (2 hours post injection), the “% injected dose, Liver” value was found to be 1.46%; the “% injected dose, Lung” value was determined as 0.06%; the “% injected dose, Small Intestine” value is given as 13.10%; the “% injected dose, Spleen” value is recorded as 0.02%. In series [4] (2 hours post injection), the “% injected dose, Stomach” value was 0.25%; the “% injected dose, Blood” value worked out at 0.36%; the “% injected dose, Muscle” value was found to be 1.00%; the “% injected dose, Bone” value came out at 47.98%.
As to `CCCCOP(=O)([O-])CN1CCN(CP(=O)([O-])OCCCC)Cc2cccc(n2)CN(CP(=O)([O-])OCCCC)CC1.[153Sm+3]` [^153 Sm-PMBHE], in series [4] (2 hours post injection), the “% injected dose, Brain” value turned out to be 0.00%; the “% injected dose, Heart” value was 0.02%; the “% injected dose, Kidney” value was 0.43%; the “% injected dose, Large Intestine” value is on record as 0.77%. In addition, in series [4] (2 hours post injection), the “% injected dose, Liver” value turned out to be 2.70%; the “% injected dose, Lung” value is listed as 0.04%; the “% injected dose, Small Intestine” value is given as 57.89%; the “% injected dose, Spleen” value was 0.05%. Further, in series [4] (2 hours post injection), the “% injected dose, Stomach” value came to 0.08%; the “% injected dose, Blood” value stood at 0.14%; the “% injected dose, Muscle” value is given as 1.09%; the “% injected dose, Bone” value was 3.73%.
For the compound `CCCOP(=O)([O-])CN1CCN(CP(=O)([O-])OCCC)Cc2cccc(n2)CN(CP(=O)([O-])OCCC)CC1.[153Sm+3]` [^153 Sm-PMPHE], in series [4] (2 hours post injection), the “% injected dose, Brain” value worked out at 0.00%; the “% injected dose, Heart” value is on record as 0.08%; the “% injected dose, Kidney” value worked out at 1.55%; the “% injected dose, Large Intestine” value came to 2.17%. In series [4] (2 hours post injection), the “% injected dose, Liver” value turned out to be 4.14%; the “% injected dose, Lung” value stood at 0.12%; the “% injected dose, Small Intestine” value was determined as 10.71%; the “% injected dose, Spleen” value is on record as 0.05%. Besides, in series [4] (2 hours post injection), the “% injected dose, Stomach” value came to 0.44%; the “% injected dose, Blood” value came to 0.25%; the “% injected dose, Muscle” value was 1.19%; the “% injected dose, Bone” value is given as 10.86%.
Turning to “^153 Sm-3,6,9,15-tetraazabicyclo[9.3.1]pentadeca-1(15),11,13-triene-3,6,9-trimethylenephosphonic acid [^153 Sm-PCTMP]”, in series [4] (30 min (general procedure)), the “% injected dose, Kidney” value turned out to be 1.42%; the “% injected dose, Liver” value is listed as 0.99%; the “% injected dose, Spleen” value came out at 0.07%; the “% injected dose, Blood” value came out at 6.27%. Also, in series [4] (30 min (general procedure)), the “% injected dose, Muscle” value was 4.77% and the “% injected dose, Bone” value is 34.87%. For the same compound, in series [5], the “complexation (percent metal as a complex)” value turned out to be 98%.

(Values after US5739294A, “Bicyclopol yazamacrocyclophosphonic acid complexes for use as contrast agents” (priority 1994, dated 1998).)
